# According to US7927790B2, “Suppression of HIV-1 replication via inhibition of human flap endonuclease-1-mediated HIV-1 central DNA flap processing” (priority 2005, dated 2011):
# Entries after “also recorded” stand apart in the source; their conditions may differ.
# Key:
# [1] = tested on: HIV IIIB virus; experiment: Antiviral challenge assay, HIV IIIB replication in H9 or CEM cells, p24; assay type: cell-based, HIV-1; settings: for inhibition of HIV replication (p24) / suppression of HIV replication (p24): HIV IIIB, 7 days; for inhibition of HIV replication (p24): 10 μM AZT; for suppression of HIV replication (p24): 15 μM pentamidine
# Procedure: H9 cells or CEM cells were challenged with HIV IIIB virus in the absence (PC) or presence of 15 μM pentamidine (PTD) or 10 μM AZT. Cells were grown for 7 days and the concentration of p24 were determined and the inhibition percentage were calculated. FIG. 13B: H9 cells or CEM cells were challenged with HIV IIIB virus in the absence or presence of varying concentration of pentamidine (PTD) or AZT. Cells were grown for 7 days and the concentration of p24 were determined.
# The next experiment examined whether pentamidine could inhibit HIV replication in vivo. The H9 cells and CEM cells were challenged with HIV IIIB virus in the absence or presence of 15 μM pentamidine or 10 μM AZT, a HIV reverse transcriptase inhibitor.
# Antiviral challenge assays using infectious laboratory and other HIV-1 strains: Appropriate cells, screened for viability and growth kinetics, are challenged with HIV-1 strain IIIB, NL4-3, JRFL or primary isolates. This is a modification of a standard method described by Ho (Ho 1991) for virus neutralization. The resultant inoculum is titrated by ID50 in uninfected CEM, H9 or PBMC cultures. 0.01 MOI HIV is inoculated onto 10^6 candidate cells for six hours at 37° C., and then washed three times with PBS. For screening assays, each cell culture supernatant is examined on day seven post infection and examined for reverse transcriptase activity or p24 concentration. For confirmation assays, cultures are followed for day 7, 14, 21 and 28 observations. Cells are fed twice weekly by removing one-half of the media. Viral inhibition is defined >50% reduction in RT activity or p24 compared with control culture, which were mock-treated.
# [2] = biological target: FEN-1 (Homo sapiens, UniProt P39748); experiment: FEN-1 nuclease assay with HIV CDF and regular 5′ flap model substrates; assay type: biochemical
# Procedure: 0.25 or 0.5 pmol of purified recombinant FEN-1 were mixed with 1 pmol of regular 5′ flap substrate with a 3′ flap of single nucleotide or HIV CDF substrate, respectively in the presence of 0, 0.1, 0.2, 0.4, 0.6, 0.8, and 1.0 mM pentamidine isethionate salt. The reaction was carried out at 37° C. for 30 minutes. Substrates and products were analyzed with DNA sequencing PAGE and visualized with radio-autograph (upper panel). The amount of cleavage products and non-cleaved substrates were quantified with ImagineQuant and were shown in the bottom panel.
# One pmol of HIV CDF substrate were mixed with 0, 0.01, 0.1, 1, and 3 pmol of purified recombinant FEN-1 in the absence or presence of 0.4 mM pentamidine isethionate salt. The reaction was carried out at 37° C. for 30 minutes. Substrates and products were analyzed with DNA sequencing PAGE and visualized with radio-autograph (upper panel). The amount of cleavage product and non-cleaved substrate were quantified with ImagineQuant and were shown in the bottom panel.
# FIG. 12 is a graph line and chart showing kinetic analysis of FEN-1 cleavage of HIV CDF substrates in the absence and presence of pentamidine. 1 pmol of FEN-1 was incubated with 0, 0.125, 0.25, 0.375, 0.5, 1, and 2 pmol of HIV CDF substrates. The reaction were carried out at 37° C. for 10 min. The amount of cleavage product and non-cleaved substrate were quantified with ImagineQuant. The Michaelis-Menten kinetic parameters Km and Kcat (Bottom panel) were calculated with double-reciprocal plots of 1/v versus 1/[s] (Upper panel).
# Nuclease assays. DNA model substrates were prepared as previously described (Zheng 2005). FEN-1 nuclease and/or D181A mutant was incubated with 1 pmol of indicated DNA substrates at 30° C. for 15 minutes. DNA substrates and products were separated in DNA sequencing PAGE and visualized with autoradiography.
# Finally, the third criteria is in vitro inhibition of HIV-CDF processing. The inhibition of FEN-1 cleavage of HIV-CDF and regular 5′ flap structures by molecules selected after criteria 2 are examined in this test. Only the molecules that inhibit FEN-1 cleavage of HIV-CDF but not the regular 5′ flap structures are qualified for in vivo studies. The inhibition efficacy of HIV replication in H9 and CEM T cell lines by small molecules is determined with the HIV reverse transcriptase inhibitor AZT used as an inhibition control.
# [3] = tested on: HIV-1 strain NL4-3 and III B; experiment: HIV-1 replication in CEM T-cells over-expressing FEN-1 or D181A, secreted p24; assay type: cell-based
# Procedure: In order to test the effects of FEN-1 function on HIV replication in its natural host cells, human T-cells, the CEM cells with the same construct shown in FIG. 4A were transfected under selection of G418. CEM cells (C), CEM cells expressing the c-myc-tagged hFEN-1 (F), or D181A mutant (A) were seeded at 0.5×10^4 cells per well in a 12-well plate. Duplicate plates were prepared for each cell line. The cells were challenged with two HIV-1 strains: NL4-3 and III B. Virus challenge proceeded at both 50 TCID50 and 5 TCID50. The cell culture supernatants were collected and the HIV-1 p24 was measured weekly for four weeks post-infection.
# HIV-1 replication in CEM cells. CEM cells, or CEM cells infected with the hFEN-1 or D181A retroviral vector, were seeded at 0.5×10^4 cells per well of a 12-well plate. Duplicate plates were prepared for each cell line. The cells were challenged with HIV-1 strain NL4-3 and III B. Viral challenge was conducted at both 50 TCID50. Cell culture supernatants were collected and the HIV-1 p24 was measured weekly for four weeks post-infection. Syncytium formation due to the HIV-1 infection was monitored, and cells were photographed under a microscope weekly (FIGS. 6-7).
# [4] = tested on: HIV-1 cDNA integration; experiment: HIV-1 integration assay, Southern blot hybridization of host genomic DNA; assay type: cell-based; settings: expression in HeLa cells
# Procedure: To further validate that inhibition of FEN-1 nuclease activity reduced HIV-1 cDNA integration, genomic DNA was isolated and the integration of viral cDNA into the host genome was detected by Southern blot hybridization. […] Both of the experiments indicate that the integration of HIV may be impaired under a FEN-1 deficient background.
# HIV-1 integration assay. Genomic DNA was isolated from HIV-1 infected cells according to a previous protocol (Chen 1998). 20 μg of DNA was digested with EcoRV and BamHI and resolved on a native agarose gel. A 0.8 kb of HIV-1 specific DNA fragment, released by digestion of HIV cDNA with BamHI and BgIII, was used as a probe in Southern blot hybridization.
# [5] = tested on: HIV-1 vector HXB2-Hyg; experiment: HIV-1 infection colony assay (hygromycin-resistant colonies) in HeLa CD4+ cells; assay type: cell-based; settings: compared to control HeLa CD4+ cells
# Procedure: The cells are infected with a modified HIV-1 virus. Upon integration, the infected cells become hygromycin-resistant due to the expression of the drug-resistant gene from the proviral DNA. The integration efficiency is then determined by counting the colonies selected on Hygromycin B. The integration is confirmed by LTR-Tag assay.
# A modified HIV-1 virus vector derived from strain HXB2 (HXB2-Hyg) with a newly created Bpm I site near the end of the U5 region in its 5′ LTR is prepared. This virus genome also contains a hygromycin-resistant gene for selecting virus-infected cells. This VSV-G pseudotyped virus is used to infect LaD cells along with LaF and LaP cells with m.o.i. of 1.0. The infected cells are cultured in a medium containing 200 μg/ml of Hygromycin B for 2 weeks. The virus-infected cells with the stable integrated provirus are hygromycin-resistant and grow into colonies. The colonies are stained with 0.2% crystal violet in 10% phosphate-buffered formalin (pH 7.0) and counted.
# An LTR-Tag analysis method is used to detect HIV integration. […] For this reason, there are many fewer ^32P-labeled LTR-Tags prepared from the D181A overexpressing LaD cells in comparison to the radioactivity-labeled LTR-Tags prepared from the LaP cells. […]
# HIV-1 infection colony assay. […] Hygromycin-resistant colonies were stained with 0.2% crystal violet in 70% ethanol, and the number of colonies was counted.
# [6] = in the presence of 400 μM of pentamidine
# Chain of FEN-1 (P39748 whole entry): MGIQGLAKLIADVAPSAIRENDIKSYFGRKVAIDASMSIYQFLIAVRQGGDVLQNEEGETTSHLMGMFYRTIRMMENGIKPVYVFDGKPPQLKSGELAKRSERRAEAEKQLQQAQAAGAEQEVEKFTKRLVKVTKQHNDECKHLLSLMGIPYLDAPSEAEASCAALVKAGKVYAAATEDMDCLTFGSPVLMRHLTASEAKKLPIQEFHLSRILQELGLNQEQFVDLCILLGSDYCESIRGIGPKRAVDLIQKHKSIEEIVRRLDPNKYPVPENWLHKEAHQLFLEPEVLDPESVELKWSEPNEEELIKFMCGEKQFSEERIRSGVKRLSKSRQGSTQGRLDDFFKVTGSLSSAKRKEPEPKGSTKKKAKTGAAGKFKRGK
compound,measurement,setting,value
Cc1cn([C@H]2C[C@H](N=[N+]=[N-])[C@@H](CO)O2)c(=O)[nH]c1=O [AZT],inhibition of HIV replication (p24),[1]; CEM cells,98.6%
same,inhibition of HIV replication (p24),[1]; H9 cells,100%
N=C(N)c1ccc(OCCCCCOc2ccc(C(=N)N)cc2)cc1 [pentamidine],effect on FEN-1 cleavage of regular 5′ flap structures resembling RNA-DNA primers,[2],little effect
same,effect on kcat and Km of FEN-1 cleavage of HIV CDF substrates,"[2]; Michaelis-Menten, double-reciprocal plots, 37° C., 10 min",decrease
same,cleavage of both HIV CDF and regular 5′ flap substrates,[2]; concentrations higher than 1 mM,completely inhibited
same,FEN-1's activity cleaving regular 5′ flap substrates retained,[2]; [6],greater than 80%
same,FEN-1 cleavage of HIV CDF structures suppressed,[2]; [6],90%
same,suppression of HIV replication (p24),[1]; CEM cells,69.3%
same,suppression of HIV replication (p24),[1]; H9 cells,98.8%
same,inhibitory effect on HIV replication compared with AZT,[1]; T-cell lines,equal to or more effective than AZT; also recorded: equivalent to AZT
same,inhibitory effect on HIV-1 replication relative to AZT,[1]; another T-cell line,about 70 % that of AZT
"D181A: dominant negative point mutant of human FEN-1, binds flap DNA but deficient in catalysis and nuclear localization","HIV-1 replication suppressed, secreted HIV p24 protein concentrations",[3]; stable T-cell lines over-expressing the mutant,more than 99.9%
same,"HIV inhibition, culture supernatant p24","[3]; transduced CEM cells, HIVIIIB and HIVNL4-3, weekly for four weeks",strong HIV inhibition
same,inhibition of wild type FEN-1 flap endonuclease activity in vitro,"[2]; HIV CDF substrate, mutant 8-10 folds higher than wild type protein concentration",almost completely inhibit
same,inhibition of FEN-1 activity with d-flap substrates,"[2]; d-flap substrates, model for host cell RNA primer removal",does not inhibit
same,HIV-1 cDNA integration into host genome,[4],significantly decreased
same,"decrease of HIV-1 integration, hygromycin-resistant CFUs",[5],more than 95 % CFUs
